Reference: ChEMBL document CHEMBL5608181, “Discovery of indazole inhibitors for heat shock protein 90 as anti-cancer agents” (Eur J Med Chem, 2024)
Calls of active or inactive are those of the source. The calls are words filed in the database; no cut-off is given here.

Legend:
BT-474 [1] = assay: Antiproliferative activity against human BT-474 cells assessed as inhibition of cell viability at 10 uM measured after 72 hrs by CellTiter 96 Aqueous One Solution Cell Proliferation Assay relative to control; format: functional
JIMT-1 = assay: Antiproliferative activity against human JIMT-1 cells assessed as inhibition of cell viability at 10 uM measured after 72 hrs by CellTiter 96 Aqueous One Solution Cell Proliferation Assay relative to control; format: functional
HEK293 = assay: Cytotoxicity against HEK293 cells assessed as reduction in cell viability at 10 uM measured after 72 hrs by CellTiter 96 Aqueous One Solution Cell Proliferation Assay; format: toxicity, cell-based; conditions: human, hek293, 72 h
[2] = AUClast in Sprague-Dawley rat at 5 mg/kg, iv; format: ADME, organism-based; conditions: in vivo
[3] = AUCinfinity in Sprague-Dawley rat at 5 mg/kg, iv; format: ADME, organism-based; conditions: in vivo
[4] = Antiproliferative activity against human Trastuzumab-sensitive BT474 cell assessed as inhibition of cell viability measured after 72 hrs by CellTiter 96 Aqueous One Solution Cell Proliferation Assay; format: functional, cell-based; conditions: BT-474, 72 h
[5] = tested on: Trastuzumab-resistant JIMT-1; assay: Antiproliferative activity against human Trastuzumab-resistant JIMT-1 cell assessed as inhibition of cell viability measured after 72 hrs by CellTiter 96 Aqueous One Solution Cell Proliferation Assay; format: functional, cell-based; conditions: Trastuzumab-resistant JIMT-1, 72 h
BT-474 [6] = assay: Downregulation of HER2 expression in human Trastuzumab-sensitive BT474 cell at 10 uM measured upto 72 hrs by Western blot analysis; format: functional, cell-based
BT-474 [7] = assay: Downregulation of AKT expression in human Trastuzumab-sensitive BT474 cell at 10 uM measured upto 72 hrs by Western blot analysis; format: functional, cell-based
[8] = target: Heat shock protein HSP 90-alpha (Homo sapiens) (UniProt P07900); assay: Inhibition of HSP90alpha in human Trastuzumab-sensitive BT474 cells assessed as reduction in HER2 phosphorylation level at Tyr1221/1222 residues at 10 uM measured upto 72 hrs by Western blot analysis; format: cell-based
[9] = target: Heat shock protein HSP 90-alpha (Homo sapiens) (UniProt P07900); assay: Inhibition of HSP90alpha in human Trastuzumab-sensitive BT474 cell assessed as reduction in Akt phosphorylation level at Ser473 residues at 10 uM measured upto 72 hrs by Western blot analysis; format: cell-based
BT-474 [10] = assay: Downregulation of cyclinD1 level in human Trastuzumab-sensitive BT474 cell at 10 uM measured upto 72 hrs by Western blot analysis; format: functional, cell-based
BT-474 [11] = assay: Downregulation of survivin protein level in human Trastuzumab-sensitive BT474 cell at 10 uM measured upto 72 hrs by Western blot analysis; format: functional, cell-based
[12] = tested on: Trastuzumab-resistant JIMT-1; assay: Downregulation of HER2 expression in human Trastuzumab-resistant JIMT-1 cell at 10 uM measured upto 72 hrs by Western blot analysis; format: functional, cell-based
[13] = tested on: Trastuzumab-resistant JIMT-1; assay: Downregulation of AKT expression in human Trastuzumab-resistant JIMT-1 cell at 10 uM measured upto 72 hrs by Western blot analysis; format: functional, cell-based
[14] = target: Heat shock protein HSP 90-alpha (Homo sapiens) (UniProt P07900); assay: Inhibition of HSP90alpha in human Trastuzumab-resistant JIMT-1 cell assessed as reduction in HER2 phosphorylation level at Tyr1221/1222 residues at 10 uM measured upto 72 hrs by Western blot analysis; format: cell-based
[15] = target: Heat shock protein HSP 90-alpha (Homo sapiens) (UniProt P07900); assay: Inhibition of HSP90alpha in human Trastuzumab-resistant JIMT-1 cell assessed as reduction in Akt phosphorylation level at Ser473 residues at 10 uM measured upto 72 hrs by Western blot analysis; format: cell-based
[16] = tested on: Trastuzumab-resistant JIMT-1; assay: Downregulation of cyclinD1 level in human Trastuzumab-resistant JIMT-1 cell at 10 uM measured upto 72 hrs by Western blot analysis; format: functional, cell-based
[17] = tested on: Trastuzumab-resistant JIMT-1; assay: Downregulation of survivin protein level in human Trastuzumab-resistant JIMT-1 cell at 10 uM measured upto 72 hrs by Western blot analysis; format: functional, cell-based
[18] = target: Heat shock protein HSP 90-alpha (Homo sapiens) (UniProt P07900); assay: Inhibition of PPID binding to C-terminal Hsp90-alpha CTD (unknown origin) at 500 uM by Alpha screen microplate reader analysis
Homo sapiens = organism: Homo sapiens; assay: Inhibition of N-terminal HSP90 (unknown origin) at 10 uM by AlphaLISA assay
[19] = tested on: Trastuzumab-resistant JIMT-1; assay: Antitumor activity against human Trastuzumab-resistant JIMT-1 cell xenografted in female BALB/c nude mouse assessed as inhibition of tumor burden at 20 mg/kg, ip administered every other day for 40 days; format: functional, organism-based; conditions: time 40.0 day
[20] = tested on: Trastuzumab-resistant JIMT-1; assay: Antitumor activity against human Trastuzumab-resistant JIMT-1 cell xenografted in female BALB/c nude mouse assessed as inhibition of tumor volume at 20 mg/kg, ip administered every other day for 40 days; format: functional, organism-based; conditions: time 40.0 day
[21] = tested on: Trastuzumab-resistant JIMT-1; assay: Antitumor activity against human Trastuzumab-resistant JIMT-1 cell xenografted in female BALB/c nude mouse assessed as inhibition of tumor weight at 20 mg/kg, ip administered every other day for 40 days; format: functional, organism-based; conditions: time 40.0 day
[22] = Toxicity in female BALB/c nude mouse assessed as effect on body weight at 20 mg/kg, ip administered every other day for 40 days; format: organism-based; conditions: in vivo, 960 h, time 40 day
[23] = Metabolic stability in human liver microsomes assessed as parent compound remaining measured after 30 mins; format: ADME, Microsome; conditions: read-out: Stability
[24] = Metabolic stability in rat liver microsomes assessed as parent compound remaining measured after 30 mins; format: ADME, Microsome; conditions: read-out: Stability
[25] = Stability in human plasma assessed as compound remaining incubated for 120 mins; format: ADME, cell-free; conditions: read-out: Stability
[26] = Stability in rat plasma assessed as compound remaining incubated for 120 mins; format: ADME, cell-free; conditions: read-out: Stability
[27] = AUC/dose in Sprague-Dawley rat at 5 mg/kg, iv; format: ADME, organism-based; conditions: in vivo
[28] = C0 in Sprague-Dawley rat at 5 mg/kg, iv; format: ADME, organism-based; conditions: in vivo
[29] = Half life in Sprague-Dawley rat at 5 mg/kg, iv; format: ADME, organism-based; conditions: in vivo
[30] = MRTinfinity in Sprague-Dawley rat at 5 mg/kg, iv; format: ADME, organism-based; conditions: in vivo
[31] = Clearance in Sprague-Dawley rat at 5 mg/kg, iv; format: ADME, organism-based; conditions: in vivo
[32] = Volume of distribution in Sprague-Dawley rat at 5 mg/kg, iv; format: ADME, organism-based; conditions: in vivo
[33] = AUClast in Sprague-Dawley rat at 10 mg/kg, po; format: ADME, organism-based; conditions: in vivo
[34] = AUCinfinity in Sprague-Dawley rat at 10 mg/kg, po; format: ADME, organism-based; conditions: in vivo
[35] = AUC/dose in Sprague-Dawley rat at 10 mg/kg, po; format: ADME, organism-based; conditions: in vivo
[36] = Cmax in Sprague-Dawley rat at 10 mg/kg, po; format: ADME, organism-based; conditions: in vivo
[37] = Tmax in Sprague-Dawley rat at 10 mg/kg, po; format: ADME, organism-based; conditions: in vivo
[38] = Half life in Sprague-Dawley rat at 10 mg/kg, po; format: ADME, organism-based; conditions: in vivo
[39] = MRTinfinity in Sprague-Dawley rat at 10 mg/kg, po; format: ADME, organism-based; conditions: in vivo
[40] = Clearance in Sprague-Dawley rat at 10 mg/kg, po; format: ADME, organism-based; conditions: in vivo
[41] = Volume of distribution in Sprague-Dawley rat at 10 mg/kg, po; format: ADME, organism-based; conditions: in vivo
[42] = Oral bioavailability in Sprague-Dawley rat at 10 mg/kg; format: ADME, organism-based; conditions: in vivo
hERG (KCNH2) [43] = target: T1, hERG (KCNH2) (Homo sapiens, UniProt Q12809); assay: Inhibition of human ERG at 10 uM by fluorescence polarization assay relative to control
hERG (KCNH2) [44] = target: T1, hERG (KCNH2); assay: Inhibition of human ERG expressed in CHO cells at 3 uM by whole-cell patch clamp assay relative to control; format: toxicity, cell-based; conditions: CHO cells expressing hERG
hERG (KCNH2) [45] = target: T1, hERG (KCNH2); assay: Inhibition of human ERG expressed in CHO cells at 30 uM by whole-cell patch clamp assay relative to control; format: toxicity, cell-based; conditions: CHO cells expressing hERG
CYP1A2 = target: T2, CYP1A2 (Homo sapiens, UniProt P05177); assay: Inhibition of CYP1A2 (unknown origin) at 10 uM relative to control; format: ADME
T2 sequence (P05177 whole entry): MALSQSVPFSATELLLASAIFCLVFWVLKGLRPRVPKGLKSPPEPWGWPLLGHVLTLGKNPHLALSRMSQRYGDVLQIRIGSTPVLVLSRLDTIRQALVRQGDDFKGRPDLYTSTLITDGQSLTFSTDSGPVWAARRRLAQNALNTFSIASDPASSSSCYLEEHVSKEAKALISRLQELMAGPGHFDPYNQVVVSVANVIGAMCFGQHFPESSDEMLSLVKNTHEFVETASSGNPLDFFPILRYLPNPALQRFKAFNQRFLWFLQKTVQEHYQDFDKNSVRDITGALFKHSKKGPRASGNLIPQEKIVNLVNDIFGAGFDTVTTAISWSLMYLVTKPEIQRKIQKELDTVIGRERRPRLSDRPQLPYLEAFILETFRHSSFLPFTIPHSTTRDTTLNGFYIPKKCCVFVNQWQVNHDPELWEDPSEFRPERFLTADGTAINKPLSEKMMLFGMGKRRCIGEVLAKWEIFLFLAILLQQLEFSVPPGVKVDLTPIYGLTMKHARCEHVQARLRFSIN

CYP2C9 = CYP2C9 (Homo sapiens, UniProt P11712); assay: Inhibition of CYP2C9 (unknown origin) at 10 uM relative to control; format: ADME
CYP3A4 = CYP3A4 (Homo sapiens, UniProt P08684); assay: Inhibition of CYP3A4 (unknown origin) at 10 uM relative to control; format: ADME
CYP2C19 = CYP2C19 (Homo sapiens, UniProt P33261); assay: Inhibition of CYP2C19 (unknown origin) at 10 uM relative to control; format: ADME
CYP2D6 = CYP2D6 (Homo sapiens, UniProt P10635); assay: Inhibition of CYP2D6 (unknown origin) at 10 uM relative to control; format: ADME
[46] = Genotoxicity in Salmonella typhimurium TA98 in presence of rat liver S9 fraction by Ames test; format: toxicity, subcellular; conditions: salmonella enterica subsp. enterica serovar typhimurium
[47] = Genotoxicity in Salmonella typhimurium TA98 in absence of rat liver S9 fraction by Ames test; format: toxicity; conditions: salmonella enterica subsp. enterica serovar typhimurium
[48] = Genotoxicity in Salmonella typhimurium TA100 in presence of rat liver S9 fraction by Ames test; format: toxicity, subcellular; conditions: salmonella enterica subsp. enterica serovar typhimurium
[49] = Genotoxicity in Salmonella typhimurium TA100 in absence of rat liver S9 fraction by Ames test; format: toxicity; conditions: salmonella enterica subsp. enterica serovar typhimurium

T1 sequence (Q12809 whole entry): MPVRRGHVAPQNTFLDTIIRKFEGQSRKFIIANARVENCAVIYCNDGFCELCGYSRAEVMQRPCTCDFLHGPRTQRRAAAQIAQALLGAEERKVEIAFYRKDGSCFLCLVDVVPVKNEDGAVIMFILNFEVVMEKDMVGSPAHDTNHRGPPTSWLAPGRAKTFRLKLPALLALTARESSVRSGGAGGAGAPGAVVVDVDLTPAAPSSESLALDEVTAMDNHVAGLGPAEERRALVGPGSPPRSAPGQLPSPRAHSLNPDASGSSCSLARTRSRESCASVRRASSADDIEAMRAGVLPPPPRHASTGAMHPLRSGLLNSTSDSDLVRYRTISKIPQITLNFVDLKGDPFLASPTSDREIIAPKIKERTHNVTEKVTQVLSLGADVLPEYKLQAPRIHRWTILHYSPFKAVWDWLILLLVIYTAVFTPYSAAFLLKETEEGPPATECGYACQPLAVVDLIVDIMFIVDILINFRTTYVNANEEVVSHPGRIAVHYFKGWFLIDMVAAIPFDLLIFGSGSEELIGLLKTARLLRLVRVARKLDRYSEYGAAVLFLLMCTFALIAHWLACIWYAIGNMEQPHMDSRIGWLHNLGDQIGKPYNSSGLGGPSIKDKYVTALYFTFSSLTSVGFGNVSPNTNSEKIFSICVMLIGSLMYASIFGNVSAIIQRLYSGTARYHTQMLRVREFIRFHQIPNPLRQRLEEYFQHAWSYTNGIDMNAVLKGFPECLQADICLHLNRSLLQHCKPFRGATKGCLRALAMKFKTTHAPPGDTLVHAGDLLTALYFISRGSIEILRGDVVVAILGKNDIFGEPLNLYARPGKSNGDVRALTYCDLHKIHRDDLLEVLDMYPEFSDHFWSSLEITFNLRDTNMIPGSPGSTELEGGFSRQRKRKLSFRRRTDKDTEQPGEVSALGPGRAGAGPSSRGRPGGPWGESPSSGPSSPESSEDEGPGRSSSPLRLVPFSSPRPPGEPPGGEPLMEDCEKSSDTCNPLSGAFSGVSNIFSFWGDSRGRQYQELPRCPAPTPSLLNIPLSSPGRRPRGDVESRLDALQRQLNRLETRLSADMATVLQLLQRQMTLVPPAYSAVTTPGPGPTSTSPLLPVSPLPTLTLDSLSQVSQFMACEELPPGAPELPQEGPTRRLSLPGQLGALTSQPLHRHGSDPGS
Chain of CYP3A4 (P08684 whole entry): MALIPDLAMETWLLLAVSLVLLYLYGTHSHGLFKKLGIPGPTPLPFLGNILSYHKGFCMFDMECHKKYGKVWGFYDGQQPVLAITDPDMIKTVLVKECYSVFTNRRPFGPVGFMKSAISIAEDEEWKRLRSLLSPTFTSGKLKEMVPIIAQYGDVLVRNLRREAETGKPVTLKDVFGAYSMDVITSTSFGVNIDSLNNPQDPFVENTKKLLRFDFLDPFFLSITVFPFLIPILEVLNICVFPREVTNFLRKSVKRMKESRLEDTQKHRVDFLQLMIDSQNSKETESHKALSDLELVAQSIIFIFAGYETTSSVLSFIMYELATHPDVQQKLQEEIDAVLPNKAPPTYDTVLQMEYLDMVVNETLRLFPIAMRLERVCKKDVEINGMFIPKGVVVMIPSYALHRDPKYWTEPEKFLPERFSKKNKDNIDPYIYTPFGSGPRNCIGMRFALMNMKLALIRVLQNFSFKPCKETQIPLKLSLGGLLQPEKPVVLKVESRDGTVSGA
Chain of CYP2C19 (P33261 whole entry): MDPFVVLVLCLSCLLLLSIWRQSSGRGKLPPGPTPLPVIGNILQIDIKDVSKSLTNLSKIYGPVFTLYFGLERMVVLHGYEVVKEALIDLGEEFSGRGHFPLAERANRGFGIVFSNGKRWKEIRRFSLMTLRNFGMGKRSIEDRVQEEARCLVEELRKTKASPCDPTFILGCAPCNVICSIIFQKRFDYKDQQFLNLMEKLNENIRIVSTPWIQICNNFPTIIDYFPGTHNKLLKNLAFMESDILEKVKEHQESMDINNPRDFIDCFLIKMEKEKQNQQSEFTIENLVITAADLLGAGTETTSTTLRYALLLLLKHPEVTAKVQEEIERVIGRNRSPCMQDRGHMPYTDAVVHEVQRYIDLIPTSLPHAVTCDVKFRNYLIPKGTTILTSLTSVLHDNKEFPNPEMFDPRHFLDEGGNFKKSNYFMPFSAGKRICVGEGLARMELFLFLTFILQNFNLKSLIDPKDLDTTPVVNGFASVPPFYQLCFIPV
Chain of CYP2D6 (P10635 whole entry): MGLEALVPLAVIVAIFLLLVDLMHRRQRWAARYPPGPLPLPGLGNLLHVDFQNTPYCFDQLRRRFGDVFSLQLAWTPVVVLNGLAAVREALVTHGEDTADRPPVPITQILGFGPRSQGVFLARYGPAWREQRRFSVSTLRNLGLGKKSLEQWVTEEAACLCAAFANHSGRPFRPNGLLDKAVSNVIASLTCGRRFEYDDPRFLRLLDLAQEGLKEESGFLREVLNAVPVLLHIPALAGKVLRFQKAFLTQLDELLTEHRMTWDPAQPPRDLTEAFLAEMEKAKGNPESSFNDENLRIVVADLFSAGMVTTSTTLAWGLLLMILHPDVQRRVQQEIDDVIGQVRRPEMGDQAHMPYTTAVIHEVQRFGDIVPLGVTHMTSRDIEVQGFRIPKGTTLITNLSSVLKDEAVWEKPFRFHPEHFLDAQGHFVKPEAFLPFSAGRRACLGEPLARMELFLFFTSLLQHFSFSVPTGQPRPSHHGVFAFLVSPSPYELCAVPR
Chain of CYP2C9 (P11712 whole entry): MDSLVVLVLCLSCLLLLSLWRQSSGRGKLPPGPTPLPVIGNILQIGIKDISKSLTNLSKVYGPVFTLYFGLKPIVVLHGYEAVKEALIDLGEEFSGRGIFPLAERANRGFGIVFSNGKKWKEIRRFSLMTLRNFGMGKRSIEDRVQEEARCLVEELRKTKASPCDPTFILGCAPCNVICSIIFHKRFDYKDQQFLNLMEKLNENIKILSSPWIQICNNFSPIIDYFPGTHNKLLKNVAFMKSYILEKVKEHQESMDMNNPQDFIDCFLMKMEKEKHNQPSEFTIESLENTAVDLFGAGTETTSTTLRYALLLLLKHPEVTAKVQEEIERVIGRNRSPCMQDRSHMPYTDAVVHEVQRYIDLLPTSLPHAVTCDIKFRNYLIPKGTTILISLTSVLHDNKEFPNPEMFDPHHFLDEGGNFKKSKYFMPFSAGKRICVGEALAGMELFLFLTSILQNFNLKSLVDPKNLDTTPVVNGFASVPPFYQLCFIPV

## COc1c(C(=O)Nc2ccc3c(C)nn(CCC4CCN(C)CC4)c3c2)ccc2c1C=CC(C)(C)O2
BT-474 [1]
  inhibition at 10 µM: < 20%
JIMT-1
  inhibition at 10 µM: < 20%
HEK293
  Activity: Toxic
[2]
  AUC(0-t): 771 ng·h/mL
[3]
  AUC: 1059 ng·h/mL
[4]
  IC50: 6.86 µM
[5]
  IC50: 4.42 µM
BT-474 [6]
  Activity: Active
BT-474 [7]
  Activity: Active
[8]
  inhibition: Active
[9]
  inhibition: Active
BT-474 [10]
  Activity: Active
BT-474 [11]
  Activity: Active
[12]
  Activity: Active
[13]
  Activity: Active
[14]
  inhibition: Active
[15]
  inhibition: Active
[16]
  Activity: Active
[17]
  Activity: Active
[18]
  inhibition: Active
Homo sapiens
  inhibition: inactive
[19]
  Activity: Active
[20]
  Activity: Active
[21]
  Activity: Active
[22]
  Activity: Non-Toxic
[23]
  remaining at 0.5 h: 94.5%
[24]
  remaining at 0.5 h: 62.8%
[25]
  remaining at 2 h: 100%
[26]
  remaining at 2 h: 98.3%
[27]
  AUC/dose: 154.3 ng·h/mL
[28]
  C0: 342 ng/mL
[29]
  half-life: 4.4 h
[30]
  MRT inf: 5.4 h
[31]
  clearance: 84.5 mL/min
[32]
  Vd: 31.2 L/kg
[33]
  AUC(0-t): 1030 ng·h/mL
[34]
  AUC: 2957 ng·h/mL
[35]
  AUC/dose: 103.2 ng·h/mL
[36]
  Cmax: 159 ng/mL
[37]
  Tmax: 4 h
[38]
  half-life: 9.6 h
[39]
  MRT inf: 15 h
[40]
  CL/F: 47.3 mL/min
[41]
  Vd: 3.6 L/kg
[42]
  F: 66.9%
hERG (KCNH2) [43]
  inhibition at 10 µM: 57%
hERG (KCNH2) [44]
  inhibition at 3 µM: 30.4%
hERG (KCNH2) [45]
  inhibition at 30 µM: 87.1%
CYP1A2
  inhibition at 10 µM: > 100%
CYP2C9
  inhibition at 10 µM: 78.2%
CYP3A4
  inhibition at 10 µM: 73%
CYP2C19
  inhibition at 10 µM: 56.3%
CYP2D6
  inhibition at 10 µM: 55.3%
[46]
  Activity: Non-Toxic
[47]
  Activity: Non-Toxic
[48]
  Activity: Non-Toxic
[49]
  Activity: Non-Toxic
